The results in this text go back to US20240417372A1, “ESTERS OF A RETINOID AND BAKUCHIOL AND PREPARATIONS THEREOF” (Conagen Inc., priority 2021, published 2024).

Holding throughout (format): cell-based
What all share (details): for Fold Activation: RLU vs DMSO, 23 hours

The test system of experiment [1] is RAR gamma. Put plainly: RAR gamma Gal4-hybrid luciferase reporter cell agonist assay. How it is done:
(§1) Reporter Cells (Indigo Biosciences, catalog #IB02201, IB02101, IB00821) used in the assays express a receptor hybrid in which the native N-terminal DNA binding domain (DBD) has been replaced with that of the yeast Gal4 DBD. The reporter gene, firefly luciferase, is functionally linked to the Gal4 upstream activation sequence (UAS). Receptor assays were performed as described in Steps 1 to 3 below.
(§2) Step 1: A suspension of Reporter Cells was prepared in Cell Recovery Medium (CRM: containing charcoal-stripped FBS) and 100 μl of the Reporter Cell suspension was dispensed into wells of a white 96-well assay plate.
(§3) Step 2: Test and reference compound master stocks were prepared as solutions at 1,000× concentration’ in DMSO relative to the final treatment concentration. This intermediate stock was subsequently diluted directly into INDIGO Biosciences's Compound Screening Medium (CSM; containing charcoal-stripped FBS) to generate ‘2×-concentration’ treatment media. 100 μL of each prepared treatment medium was dispensed into duplicate assay wells pre-dispensed with a 100 μL suspension of Reporter Cells, thereby achieving the desired final treatment concentrations. The concentration of residual DMSO in all assay wells was 0.1% for the test and reference compounds. Assay plates were incubated at 37° C., 5% CO2 and ˜70% humidity for 23 hours. DMSO control was used to determine background activity. Retinoic acid was used with its EC100 concentration to show 100% activity of each receptor. Retinol was used as positive control.
(§4) Step 3: Following the incubation period, treatment media were discarded and 100 μL/well of Luciferase Detection Reagent was added per well to determine receptor activity in terms of relative luminescence units (RLUs). Data processing: fold activation: [Ave RLU Test Cmpd/Ave RLU DMSO].

The target in experiment [2] is T1, RAR alpha (Homo sapiens, UniProt P10276).
T1 sequence (P10276 183-417 limits assumed): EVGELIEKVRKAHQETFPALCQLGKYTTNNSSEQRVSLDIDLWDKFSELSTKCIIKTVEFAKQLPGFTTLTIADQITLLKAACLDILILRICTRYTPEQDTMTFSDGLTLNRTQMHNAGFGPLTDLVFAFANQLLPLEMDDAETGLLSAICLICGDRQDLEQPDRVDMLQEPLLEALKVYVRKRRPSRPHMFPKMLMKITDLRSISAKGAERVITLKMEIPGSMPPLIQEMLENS
Put plainly: RAR alpha Gal4-hybrid luciferase reporter cell agonist assay. How it is done: as §1, §2, §3, §4

Experiment [3] addresses T2, RAR beta (Homo sapiens, UniProt P10826).
T2 sequence (P10826 183-417 limits assumed): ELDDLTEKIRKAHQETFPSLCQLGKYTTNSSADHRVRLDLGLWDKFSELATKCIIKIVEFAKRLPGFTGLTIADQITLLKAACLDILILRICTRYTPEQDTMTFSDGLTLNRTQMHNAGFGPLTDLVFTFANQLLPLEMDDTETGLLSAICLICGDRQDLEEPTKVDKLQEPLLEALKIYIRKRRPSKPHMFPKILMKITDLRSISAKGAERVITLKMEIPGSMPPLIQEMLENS
Put plainly: RAR beta Gal4-hybrid luciferase reporter cell agonist assay. How it is done: as §1, §2, §3, §4

Molecules are shown by their SMILES.

Take `CC1=C(/C=C/C(C)=C/C=C/C(C)=C/C(=O)O)C(C)(C)CCC1` [Retinoic acid, reference compound]: the “Fold Activation” value in experiment [1] (RAR gamma, 0.1 μM (EC100 concentration of retinoic acid)) amounted to 706.
As to `CC1=C(/C=C/C(C)=C/C=C/C(C)=C/CO)C(C)(C)CCC1` [Retinol, reference compound], the “Fold Activation” value amounted to 6.35 in experiment [2] (RAR alpha, 0.1 μM); 518 in experiment [2] (RAR alpha, 1 μM); 4.91 in experiment [3] (RAR beta, 0.1 μM); 127 in experiment [3] (RAR beta, 1 μM); 18.5 in experiment [1] (RAR gamma, 0.1 μM); 368 in experiment [1] (RAR gamma, 1 μM).
`C=C[C@](C)(/C=C/c1ccc(OC(=O)/C=C(C)/C=C/C=C(C)/C=C/C2=C(C)CCCC2(C)C)cc1)CCC=C(C)C` [Bakuchoyl retinoate of Formula I]: the “Fold Activation” value in experiment [2] (RAR alpha, 0.1 μM) turned out to be 26.0; in experiment [2] (RAR alpha, 1 μM) it was 979; in experiment [3] (RAR beta, 0.1 μM), 12.6; in experiment [3] (RAR beta, 1 μM), 169; in experiment [1] (RAR gamma, 0.1 μM), 41.0; in experiment [1] (RAR gamma, 1 μM) it was 541. In addition, the “activity compared with retinol (in words)” value in experiment [2] (RAR alpha, at 0.1 μm and 0.01 μm) is reported as “more active than retinol”; in experiment [3] (RAR beta, at 0.1 μm and 0.01 μm), “more active than retinol”; in experiment [1] (RAR gamma, at 0.1 μm and 0.01 μm) it was “more active than retinol”. In addition, the “agonist activity towards RAR alpha (in words)” value in experiment [2] (summary of Table 1) was “exhibited agonist activity”. Further, the “agonist activity towards RAR beta (in words)” value in experiment [3] (summary of Table 1) is “exhibited agonist activity”. Also, the “agonist activity towards RAR gamma (in words)” value in experiment [1] (summary of Table 1) was “exhibited agonist activity”.
